The record followed here is patent publication US12116358B2, “Substituted indoles and methods of use thereof” (EPIZYME, INC., priority 2018, dated 2024).

Assay [1] has as its system H3K36me3 in A549 cells. Briefly: In-Cell Western (ICW) assay of SETD2 inhibitors (A549 assay). The format is cell-based, human. The following applies: A549 cells, read-out: SETD2 A549. The essentials:
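H3K36me3 In-Cell Western: cells exposed to compound for 3 days at 4,000 cells/well, 37° C. DRAQ5 (1:1000) marked cell number, with 700/800-channel Licor read-out.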

Assay [2] addresses T1, SETD2(1434-1711) (Homo sapiens, UniProt Q9BYW2).
T1 construct: SETD2 (1434-1711) Assay; catalogue N/A
T1 sequence (Q9BYW2 1434-1711): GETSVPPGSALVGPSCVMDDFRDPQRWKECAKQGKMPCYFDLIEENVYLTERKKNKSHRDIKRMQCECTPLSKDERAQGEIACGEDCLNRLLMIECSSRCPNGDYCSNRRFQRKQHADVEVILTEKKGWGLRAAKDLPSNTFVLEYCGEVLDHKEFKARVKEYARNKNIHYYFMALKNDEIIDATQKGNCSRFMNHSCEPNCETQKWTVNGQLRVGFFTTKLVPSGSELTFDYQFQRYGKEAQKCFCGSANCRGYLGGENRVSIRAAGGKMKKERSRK
Briefly: SETD2 (1434-1711) assay. Conditions: read-out: SETD2 (1434-1711). The format is biochemical.

Molecules are shown by their SMILES. Like-named read-outs stand apart in the source and are kept apart here.

As to `Cc1ccc(F)c2cc(C(=O)Nc3cccc(N4CCC(NCCO)CC4)c3)[nH]c12` [compound 210], the IC50 was found to be 400 nM in assay [1] and 30 nM in assay [2].
In the same order, the values of `Cc1ccc(F)c2cc(C(=O)Nc3cccc(N4CCC5(CCCN5C)CC4)c3)[nH]c12` [compound 212] are 400 nM and 20 nM.
On to `CC(=O)N1[C@H](C)CN(c2cccc(NC(=O)c3cc4c(F)ccc(C)c4[nH]3)c2)C[C@H]1C` [compound 214], for which the results for the IC50 in assay [1] and in assay [2] were 500 nM and 100 nM, respectively.
In the same order, the values of `Cc1ccc(F)c2cc(C(=O)Nc3cccc(-c4cc5cnccn5c4)c3)[nH]c12` [compound 215] are 500 nM and 70 nM.
For `Cc1ccc(F)c2cc(C(=O)Nc3cccc(N4CCOCC4C)c3)[nH]c12` (centres unmarked) [compound 216], the figures for the IC50 in assay [1] and in assay [2] were 500 nM and 100 nM, respectively.
As for `Cc1ccc(F)c2cc(C(=O)Nc3cccc([C@@H]4CC[C@@H](N(C)C)C4)c3)[nH]c12` [compound 217], the IC50 in assay [1] is 500 nM; in assay [2], 10 nM.
Regarding `Cc1ccc(F)c2cc(C(=O)Nc3cccc(N4CC5CC(C4)O5)c3)[nH]c12` [compound 218], the IC50 in assay [1] is 500 nM; in assay [2] it was 70 nM.
Taken in the same sequence, the figures for `Cc1ccc(F)c2cc(C(=O)Nc3cccc(-c4cnn(CCO)c4)c3)[nH]c12` [compound 219] were 500 nM and 60 nM.
Taken in the same sequence, the figures for `Cc1ccc(F)c2cc(C(=O)Nc3cccc(N4CCN5CCCC5C4)c3)[nH]c12` (centres unmarked) [compound 220] were 500 nM and 40 nM.
Taken in the same sequence, the figures for `Cc1ccc(F)c2cc(C(=O)Nc3cccc(N4CCC(C)(N(C)C)CC4)c3)[nH]c12` [compound 222] were 500 nM and 20 nM.
With `COCCN1CCN(c2cccc(NC(=O)c3cc4c(F)ccc(C)c4[nH]3)c2)CC1` [compound 223], the IC50 was 500 nM in assay [1] and 90 nM in assay [2].
As for `Cc1ccc(F)c2cc(C(=O)Nc3cccc(C4COC4)c3)[nH]c12` [compound 224], the IC50 amounted to 500 nM in assay [1] and 200 nM in assay [2].
In the case of `CCCNC1CCN(c2cccc(NC(=O)c3cc4c(F)ccc(C)c4[nH]3)c2)CC1` [compound 225], the IC50 worked out at 500 nM in assay [1] and 30 nM in assay [2].
In the same order, the values of `Cc1ccc(F)c2cc(C(=O)Nc3cccc(C4CCN(C(=O)CN(C)C)C4)c3)[nH]c12` (centres unmarked) [compound 226] are 500 nM and 60 nM.
Taken in the same sequence, the figures for `Cc1ccc(F)c2cc(C(=O)Nc3cccc(N4CCC(N(CCO)CCO)CC4)c3)[nH]c12` [compound 227] were 500 nM and 30 nM.
As for `Cc1ccc(F)c2cc(C(=O)Nc3cccc(-c4ccc(Cn5ccnc5)cc4)c3)[nH]c12` [compound 228], the figures for the IC50 in assay [1] and in assay [2] were 500 nM and 80 nM, respectively.
Taken in the same sequence, the figures for `Cc1ccc(F)c2cc(C(=O)Nc3cccc(N4CCN(C)C(C(F)(F)F)C4)c3)[nH]c12` (centres unmarked) [compound 229] were 500 nM and 100 nM.
With `Cc1ccc(F)c2cc(C(=O)Nc3cc(F)cc(C4CCN(C5CCN(C)C5=O)C4)c3)[nH]c12` (centres unmarked) [compound 230], the values for the IC50 in assay [1] and in assay [2] were 500 nM and 40 nM, respectively.
In the same order, the values of `Cc1ccc(F)c2cc(C(=O)Nc3cccc(-c4ccc(OCCO)cc4)c3)[nH]c12` [compound 231] are 500 nM and 100 nM.
In the case of `Cc1ccc(F)c2cc(C(=O)Nc3cc(N4CCN(C)CC4)n4cncc4c3)[nH]c12` [compound 232], the figures for the IC50 in assay [1] (Homo sapiens) and in assay [2] were 500 nM and 60 nM, respectively.
Take `Cc1ccc(F)c2cc(C(=O)Nc3cccc(N4CCn5ccnc5C4)c3)[nH]c12` [compound 233]: the IC50 in assay [1] was 500 nM; in assay [2] it was 50 nM.
For the compound `Cc1ccc(F)c2cc(C(=O)Nc3cccc(-c4cccn5nccc45)c3)[nH]c12` [compound 235], the IC50 in assay [1] (Homo sapiens) amounted to 500 nM; in assay [2], 100 nM.
In the case of `Cc1ccc(F)c2cc(C(=O)Nc3cccc(N4CCN(C5CC5)CC4)c3)[nH]c12` [compound 236], the IC50 in assay [1] was determined as 600 nM; in assay [2], 200 nM.
Taken in the same sequence, the figures for `Cc1ccc(F)c2cc(C(=O)Nc3cccc(-c4nncn4C)c3)[nH]c12` [compound 237] were 600 nM and 100 nM.
Taken in the same sequence, the figures for `Cc1ccc(F)c2cc(C(=O)Nc3cccc4ncccc34)[nH]c12` [compound 238] were 600 nM and 200 nM.
On to `Cc1ccc(F)c2cc(C(=O)Nc3cccc(-c4ccnn4C)c3)[nH]c12` [compound 239], for which the IC50 in assay [1] was 600 nM; in assay [2], 200 nM.
In the same order, the values of `Cc1ccc(F)c2cc(C(=O)Nc3cccc(N4CCC(OCCN)CC4)c3)[nH]c12` [compound 240] are 600 nM and 20 nM.
Taken in the same sequence, the figures for `Cc1ccc(F)c2cc(C(=O)Nc3cccc(N4CCC5(CCNC5)CC4)c3)[nH]c12` [compound 241] were 600 nM and 10 nM.
In the same order, the values of `CC(=O)N1CCN(c2cc(NC(=O)c3cc4c(F)ccc(C)c4[nH]3)cc(C(F)(F)F)c2)CC1` [compound 242] are 600 nM and 100 nM.
With `Cc1ccc(F)c2cc(C(=O)Nc3cccc(N4CCN(C(C)C)CC4)c3)[nH]c12` [compound 243], the IC50 is 600 nM in assay [1] and 50 nM in assay [2].
In the same order, the values of `Cc1ccc(F)c2cc(C(=O)Nc3cccc(CCN4CCN(C)CC4)c3)[nH]c12` [compound 244] are 600 nM and 80 nM.
As for `Cc1ccc(F)c2cc(C(=O)Nc3cccc(N4CC5CCN(C)C5C4)c3)[nH]c12` (centres unmarked) [compound 245], the IC50 came out at 600 nM in assay [1] and 10 nM in assay [2].
Taken in the same sequence, the figures for `Cc1ccc(F)c2cc(C(=O)Nc3cc(Cl)cc(N4CCC(CCCN)CC4)c3)[nH]c12` [compound 246] were 600 nM and 9 nM.
Regarding `Cc1ccc(F)c2cc(C(=O)Nc3cccc4c3cnn4C3CCN(C)CC3)[nH]c12` [compound 247], the IC50 turned out to be 600 nM in assay [1] (Homo sapiens) and 50 nM in assay [2].
`CC(=O)N1CCCN(c2cccc(NC(=O)c3cc4c(F)ccc(C)c4[nH]3)c2)CC1` [compound 248]: the IC50 in assay [1] amounted to 600 nM; in assay [2] it was 100 nM.
Consider `Cc1ccc(F)c2cc(C(=O)Nc3cccc(-c4ncon4)c3)[nH]c12` [compound 249], for which the figures for the IC50 in assay [1] (Homo sapiens) and in assay [2] were 600 nM and 200 nM, respectively.
Regarding `Cc1ccc(F)c2cc(C(=O)Nc3cccc(N4CC5CCC(C4)O5)c3)[nH]c12` [compound 250], the IC50 in assay [1] came out at 600 nM; in assay [2] it was 100 nM.
Consider `Cc1ccc(F)c2cc(C(=O)Nc3cccc(C45CCC(N(C)C)CC4C5)c3)[nH]c12` (centres unmarked) [compound 251], for which the IC50 in assay [1] stood at 600 nM; in assay [2], 10 nM.
Take `Cc1ccc(F)c2cc(C(=O)Nc3cccc(-c4cn[nH]c4)c3)[nH]c12` [compound 252]: the IC50 turned out to be 600 nM in assay [1] and 200 nM in assay [2].
In the same order, the values of `COCC1(N(C)C)CCN(c2cccc(NC(=O)c3cc4c(F)ccc(C)c4[nH]3)c2)CC1` [compound 253] are 600 nM and 50 nM.
Regarding `Cc1ccc(F)c2cc(C(=O)Nc3cccc(N4CCC(O)(CN(C)C)CC4)c3)[nH]c12` [compound 254], the IC50 in assay [1] (Homo sapiens) stood at 600 nM; in assay [2], 60 nM.
Taken in the same sequence, the figures for `Cc1ccc(F)c2cc(C(=O)Nc3cccc(C4(C#N)CCC(N(C)C)CC4)c3)[nH]c12` (centres unmarked) [compound 255] were 600 nM and 30 nM.
In the same order, the values of `Cc1ccc(F)c2cc(C(=O)Nc3cccc(CC(=O)N(C)C)c3)[nH]c12` [compound 256] are 600 nM and 200 nM.
Consider `CC(=O)N1C2CC1CN(c1cccc(NC(=O)c3cc4c(F)ccc(C)c4[nH]3)c1)C2` [compound 257], for which the IC50 in assay [1] (Homo sapiens) was 600 nM; in assay [2] it was 200 nM.
With `Cc1cc(CCN2CCN(C)CC2)cnc1C(Cc1ccccc1)NC(=O)c1cc2c(F)ccc(C)c2[nH]1` (centres unmarked) [compound 258], the IC50 in assay [1] (Homo sapiens) worked out at 600 nM; in assay [2], 40 nM.
For `Cc1ccc(F)c2cc(C(=O)Nc3cccc(N4CCC5(CCN(CC(F)F)CC5)C4)c3)[nH]c12` [compound 259], the IC50 in assay [1] (Homo sapiens) is 600 nM; in assay [2] it was 100 nM.
In the same order, the values of `Cc1ccc(F)c2cc(C(=O)Nc3cccc(N4CCN(C(=O)OC(C)(C)C)CC4)c3)[nH]c12` [compound 260] are 700 nM and 200 nM.
Turning to `Cc1ccc(F)c2cc(C(=O)Nc3cccc(-c4ncco4)c3)[nH]c12` [compound 261], the figures for the IC50 in assay [1] (Homo sapiens) and in assay [2] were 700 nM and 80 nM, respectively.
Taken in the same sequence, the figures for `COC1(C)CCN(c2cccc(NC(=O)c3cc4c(F)ccc(C)c4[nH]3)c2)CC1` [compound 262] were 700 nM and 200 nM.
For `CC(=O)Nc1cccc(-c2cccc(NC(=O)c3cc4c(F)ccc(C)c4[nH]3)c2)c1` [compound 263], the IC50 in assay [1] (Homo sapiens) and in assay [2] was 700 nM in each case.
`Cc1ccc(F)c2cc(C(=O)Nc3cccc([C@H]4CC[C@H](N(C)C)C4)c3)[nH]c12` [compound 264]: the IC50 in assay [1] (Homo sapiens) amounted to 700 nM; in assay [2], 20 nM.
In the case of `Cc1ccc(F)c2cc(C(=O)Nc3cccc(N4CCOCC4CO)c3)[nH]c12` (centres unmarked) [compound 265], the values for the IC50 in assay [1] (Homo sapiens) and in assay [2] were 700 nM and 200 nM, respectively.
